Patent US20040115804A1, “Cell system for generating somatic cells” (priority 2002, published 2004)

Experiments:
[1] = tested on: haematopoietic stem cells of umbilical cord blood; details: cultured in 0.001% of β-Mercaptoethanol; cited from earlier work
[2] = tested on: umbilical mesenchymal cells; assay: Transformation of umbilical mesenchymal cells into neurons with BME (NF and NeuN immunostaining); type: cell-based, human; details: 2 mM BME, 72 hours
Source text: Neurofilament (NF) is the major cytoskeleton in neurons, which is responsible for adjusting the size, appearance and diameter of dendrites of neurons. Only neurons at the late developmental stage or mature neurons express NF. Immunostaining for NF is utilized to recognize neurons at the late stage.
Neuron-specific nuclear protein (NeuN) is a specific protein existing in the nucleus of neurons in the central nervous system of vertebrates. NeuN binds to DNA in vitro. It is known that NeuN appears earlier than NF during the development of neurons. Therefore, immunostaining for NeuN is utilized to identify neurons at the early stage of transformation.
Umbilical mesenchymal cells obtained in Example 1 were cultured in 10% FBS-DMEM for 72 hours. Two mM BME was added to the culture and the cells continued to be cultured for 72 hours.

[3] = tested on: BMSCs; details: in vitro culture of BMSCs; cited from earlier work
[4] = unsuitable for use in human bodies; cited from earlier work
[5] = tested on: umbilical mesenchymal cells; assay: Cardiac troponin I / F-actin immunocytochemistry after cardiac differentiation; type: cell-based, human; details: 3 μM 5-azacytidine for 24 hours, then growing medium 1-3 weeks
Method: Umbilical mesenchymal cells obtained in Example 1 were cultured in a cell growing medium of DMEM supplemented with about 4.5 g/L of glucose and about 10% FBS. After the cells have attached to the bottom of the cell culture plate, the cell growing medium was then replaced by a cell differentiating medium, which was prepared by supplementing the cell growing medium with 3 μM 5-azacytidine as a cell differentiating factor. Alternatively, the cell differentiating factor may be directly added to the culture.
The umbilical mesenchymal cells were cultured in the cell differentiating medium for 24 hours. The cell differentiating medium was then replaced by the cell growing medium to prevent intoxication of the cells caused by the long exposure to 5-azacytidine. The differentiated cells were further maintained in the cell growing medium for about 1-3 weeks to ensure the viability and optimal differentiation of the cells. The culture medium was replaced with fresh medium every three days. […]
Next, secondary antibodies conjugated to fluorescence or any visible dyes readily detectable by an optical instrument such as a confocal laser scanning microscope, a fluorescence microscope, or an optical microscope, Rhodamine (TRITC)-conjugated AffiniPure Donkey Anti-Goat IgG (supplied by Jackson ImmunoResearch Lab) were added at a 1:100 dilution to bind the host species of the primary antibodies. […]

[6] = tested on: bone marrow stromal cells; details: bone marrow stromal cells treated with 5-azacytidine; cited from earlier work

Structure (SMILES)	transformation of cord blood haematopoietic stem cells [1]	NF expression (immunostaining) [2]	NeuN expression (immunostaining) [2]	cultured BMSCs induced to differentiate into neurons [3]	toxicity [4]	F-actin expression, cell attachment pattern [5]	C-troponin I expression ([5]; compared to untreated cells)	ultrastructure by electron microscopy [6]
OCCS [BME, β-mercaptoethanol]	transformed into precursors of neural cells	expressed NF	expressed NeuN	about 80%	toxic for proteins	–	–	–
Nc1ncn([C@@H]2O[C@H](CO)[C@@H](O)[C@H]2O)c(=O)n1 [cell differentiating factor, 5-azacytidine]	–	–	–	–	–	specific cell attachment pattern similar to that of the cardiomyocytes or cardiovascular cells	significant expression of C-troponin I	cardiomyocyte-like ultrastructure
